Data set [1] concerns rats. The following applies: cited from earlier work.
For data set [2] the following is noted: plasma, cited from earlier work.
Data set [3] has as its system monkeys. Details: method as in earlier work. The settings on record: 9 months dosing; cited from earlier work.
Data set [4] deals with HBV. Description: In vitro combination study in HepG2.2.15 cells. Type of data set: cell-based, hepatitis B virus. The settings on record: for interference with HBsAg inhibition by AB-161: HepG2.2.15, combined with AB-161; for effect on the levels of HBsAg: HepG2.2.15, compound alone; for Antagonism / Synergy / Conclusion (combination effect): Inhibitor A combined with AB-161, HBV DNA; for Antagonism / Synergy: 99.9% confidence; for Conclusion (combination effect): Prichard and Shipman criteria.

Data set [5] relates to HBV. Nature of the data set: HBV life cycle analysis in HepG2.2.15 cells. Type of data set: cell-based, hepatitis B virus. The following applies: ETV 1 μM, GLS4 1 μM, AB-161 100 nM.
The test system of data set [6] is Wild-type HBV. Description: HBV polymerase variant phenotyping in Huh-7: wild-type. The settings on record: Hepatitis B virus, Huh-7, read-out: HBV DNA, EC50.
Data set [7] relates to rats. The following applies: rat, in vivo; cited from earlier work.
For data set [8], the system named is dogs. The following applies: dog, in vivo; cited from earlier work.

SMILES strings stand for the structures. Counter-ions that a name gives are not always drawn. Like-named read-outs stand apart in the source and are kept apart here.

As to `COCCCOc1cc2c(cc1OC)-c1cc(=O)c(C(=O)O)cn1[C@H](C(C)C)C2` [RG7834], the neurotoxicity entry in data set [1] (6 months dosing) is “dose- and time-dependent neurotoxicity”; in data set [3], “dose- and time-dependent neurotoxicity”. Also, the “male reproductive adverse events” value in data set [1] was “abnormal sperm and testicular changes”. Further, the protein binding in data set [2] (species not stated) is listed as roughly 56%.
In the case of `C=C1[C@H](CO)[C@@H](O)C[C@@H]1n1cnc2c(=O)[nH]c(N)nc21` [ETV, entecavir], in data set [4], the “interference with HBsAg inhibition by AB-161” value is listed as “did not interfere”, the “effect on the levels of HBsAg” value is listed as “do not affect”, the Antagonism is −3.99 ± 3.59 µM^2% and the Synergy came out at 0.00 ± 0.00 µM^2%. In addition, the “Conclusion (combination effect)” value in data set [4] was “Additive”. In addition, in data set [4] (Hepatitis B virus, HepG2.2.15, read-out: Inhibitor A EC50), the EC50 turned out to be 5.1 ± 1.1 nM. In data set [5], the “HBV DNA replication” value is “profoundly inhibited”; the “intracellular HBV RNA (pgRNA, preS/S RNA)” value was “no effect”; the “viral proteins: HBV core and capsid assembly” value is given as “no effect”. For the same compound, the EC50 in data set [6] came to 17 nM.
On to `CCOC(=O)C1=C(CN2CCOCC2)NC(c2nccs2)=NC1c1ccc(F)cc1Br` (centres unmarked) [GLS4], for which, in data set [5], the “HBV DNA replication” value was “substantially reduced”; the “intracellular HBV RNA (pgRNA, preS/S RNA)” value is listed as “no effect”; the “viral proteins: HBV core and capsid assembly” value is listed as “substantially reduced”.
`CC(C)OC(=O)OCOP(=O)(CO[C@H](C)Cn1cnc2c(N)ncnc21)OCOC(=O)OC(C)C` [TDF, tenofovir disoproxil fumarate]: in data set [4], the “interference with HBsAg inhibition by AB-161” value was “did not interfere”, the “effect on the levels of HBsAg” value is recorded as “do not affect”, the Antagonism is −0.43 ± 0.744 µM^2% and the Synergy was found to be 0.00 ± 0.00 µM^2%. Also, the “Conclusion (combination effect)” value in data set [4] is “Additive”.
For the compound `COCCCOc1cc2c(nc1OC)-c1cc(=O)c(C(=O)O)cn1[C@H](C(C)C)C2` [AB-452, (S)-6-Isopropyl-2-methoxy-3-(3-methoxypropoxy)-10-oxo-5,10-dihydro-6H-pyrido [1,2-h][1,7]naphthyridine-9-carboxylic Acid], in data set [7], the “findings in male reproductive tissues” value is “Decreased epididymis and minimal-to-mild spermatid depletion”; the “histopathology of sciatic nerves” value is on record as “axonal degeneration”. The protein binding in data set [2] is given as roughly 50%. Besides, the “histopathology of spinal nerves” value in data set [8] was “axonal degeneration”.

Values taken from article PMC10975527 (Viruses, 2024).
